Results reported in patent publication US12577245B2, “Sulfonyl benzamide derivatives as Bcl-2 inhibitors” (ASCENTAGE PHARMA (SUZHOU) CO., LTD., priority 2021, dated 2026).

Legend:
[1] = molecular target: Bcl-2 WT (Homo sapiens, UniProt P10415); experiment: Bcl-2 WT inhibition, fluorescence polarization (Flu-BIM tracer) binding assay; conditions: FP; 20 nM Bcl2, 5 nM Flu-BIM, 1 h incubation; read-out: Bcl-2 w.t. (FP)
[2] = tested on: RS4; 11Bcl-2-G101V cells; experiment: CellTiter-Glo (CTG) cell viability assay in RS4;11-Bcl-2-G101V cells; assay type: cell-based; conditions: 72 h, 10% FBS, 3 days
Procedure, shortened: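 Luminescent ATP read-out (CellTiter-Glo) after 3-day compound treatment at 37 °C gave viability relative to vehicle, from which IC50 was fitted. Mutant Bcl-2 RS4;11 cells were seeded at 10000 per well and rested 4 h before dosing.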

[3] = tested on: MV-4-11 cells; experiment: CCK-8 cell viability assay in MV-4-11 cells; assay type: cell-based; conditions: Homo sapiens, MV4-11, 72 h, 10% FBS, 3 days
Procedure, shortened: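 IC50 values come from vehicle-normalized CCK-8 absorbance at 450 nm, read 1–4 h after reagent addition. Before that, MV-4-11 cells seeded at 20000 per well were cultured 3 days at 37 °C with a compound dilution series.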

Bcl-2 WT, sequence (P10415 whole entry): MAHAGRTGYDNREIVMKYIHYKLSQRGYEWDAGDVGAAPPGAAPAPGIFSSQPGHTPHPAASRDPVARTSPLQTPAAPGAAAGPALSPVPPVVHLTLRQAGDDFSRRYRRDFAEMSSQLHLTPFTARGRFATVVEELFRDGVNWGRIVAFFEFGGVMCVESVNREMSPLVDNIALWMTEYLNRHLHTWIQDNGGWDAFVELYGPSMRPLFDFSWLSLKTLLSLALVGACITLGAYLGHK

SMILES | IC50 [1] | IC50 [2] | IC50 [3]
CC1(C)CCC(CN2CCN(c3ccc(C(=O)NS(=O)(=O)c4ccc(NC[C@H]5CC[C@](C)(O)CC5)c([N+](=O)[O-])c4)c(Oc4cnc5[nH]ccc5c4)c3)CC2)=C(c2cc(-c3c(F)cc(C(C)(O)C4CC4)cc3F)cs2)C1 (stereo partly drawn) [Example 69, 2-((1H-pyrrolo[2,3-b]pyridin-5-yl)oxy)-4-(4-((2-(4-(4-(1-cyclopropyl-1-hydroxyethyl)-2,6-difluorophenyl)thiophen-2-yl)-4,4-dimethylcyclohex-1-en-1-yl)methyl)piperazin-1-yl)-N-((4-((((1r,4r)-4-hydroxy-4-methylcyclohexyl)methyl)amino)-3-nitrophenyl)sulfonyl)benzamide] | 24.8 nM | 300 nM | 473 nM
CC1(C)CCC(CN2CCN(c3ccc(C(=O)NS(=O)(=O)c4ccc(NC[C@H]5CC[C@](C)(O)CC5)c([N+](=O)[O-])c4)c(Oc4cnc5[nH]ccc5c4)c3)CC2)=C(c2cc(-c3cccc(C(C)(C)O)c3)cs2)C1 [Example 70, 2-((1H-pyrrolo[2,3-b]pyridin-5-yl)oxy)-N-((4-((((1r,4r)-4-hydroxy-4-methylcyclohexyl)methyl)amino)-3-nitrophenyl)sulfonyl)-4-(4-((2-(4-(3-(2-hydroxypropan-2-yl)phenyl)thiophen-2-yl)-4,4-dimethylcyclohex-1-en-1-yl)methyl)piperazin-1-yl)benzamide] | 19.8 nM | 1460 nM | 95 nM
CC1(C)CCC(CN2CCN(c3ccc(C(=O)NS(=O)(=O)c4ccc(NC[C@H]5CC[C@](C)(O)CC5)c([N+](=O)[O-])c4)c(Oc4cnc5[nH]ccc5c4)c3)CC2)=C(c2cc(-c3ccc(C(C)(C)O)c(F)c3)cs2)C1 [Example 71, 2-((1H-pyrrolo[2,3-b]pyridin-5-yl)oxy)-4-(4-((2-(4-(3-fluoro-4-(2-hydroxypropan-2-yl)phenyl)thiophen-2-yl)-4,4-dimethylcyclohex-1-en-1-yl)methyl)piperazin-1-yl)-N-((4-((((1r,4r)-4-hydroxy-4-methylcyclohexyl)methyl)amino)-3-nitrophenyl)sulfonyl)benzamide] | 15.4 nM | 330 nM | 12 nM
CC(CO)c1ccc(-c2csc(C3=C(CN4CCN(c5ccc(C(=O)NS(=O)(=O)c6ccc(NC[C@H]7CC[C@](C)(O)CC7)c([N+](=O)[O-])c6)c(Oc6cnc7[nH]ccc7c6)c5)CC4)CCC(C)(C)C3)c2)c(F)c1 (stereo partly drawn) [Example 72, 2-((1H-pyrrolo[2,3-b]pyridin-5-yl)oxy)-4-(4-((2-(4-(2-fluoro-4-(1-hydroxypropan-2-yl)phenyl)thiophen-2-yl)-4,4-dimethylcyclohex-1-en-1-yl)methyl)piperazin-1-yl)-N-((4-((((1r,4r)-4-hydroxy-4-methylcyclohexyl)methyl)amino)-3-nitrophenyl)sulfonyl)benzamide] | 20.5 nM | 440 nM | 12 nM
CC(C)(O)Cc1ccc(-c2csc(C3=C(CN4CCN(c5ccc(C(=O)NS(=O)(=O)c6ccc(NC[C@H]7CC[C@](C)(O)CC7)c([N+](=O)[O-])c6)c(Oc6cnc7[nH]ccc7c6)c5)CC4)CCC(C)(C)C3)c2)c(F)c1 [Example 73, 2-((1H-pyrrolo[2,3-b]pyridin-5-yl)oxy)-4-(4-((2-(4-(2-fluoro-4-(2-hydroxy-2-methylpropyl)phenyl)thiophen-2-yl)-4,4-dimethylcyclohex-1-en-1-yl)methyl)piperazin-1-yl)-N-((4-((((1r,4r)-4-hydroxy-4-methylcyclohexyl)methyl)amino)-3-nitrophenyl)sulfonyl)benzamide] | 23.7 nM | 490 nM | 8 nM
CC1(C)CCC(CN2CCN(c3ccc(C(=O)NS(=O)(=O)c4ccc(NC[C@H]5CC[C@](C)(O)CC5)c([N+](=O)[O-])c4)c(Oc4cnc5[nH]ccc5c4)c3)CC2)=C(c2cc(-c3c(F)cc(C(C)(C)CO)cc3F)cs2)C1 [Example 74, 2-((1H-pyrrolo[2,3-b]pyridin-5-yl)oxy)-4-(4-((2-(4-(2,6-difluoro-4-(1-hydroxy-2-methylpropan-2-yl)phenyl)thiophen-2-yl)-4,4-dimethylcyclohex-1-en-1-yl)methyl)piperazin-1-yl)-N-((4-((((1r,4r)-4-hydroxy-4-methylcyclohexyl)methyl)amino)-3-nitrophenyl)sulfonyl)benzamide] | 38.5 nM | 230 nM | 52 nM
CC1(C)CCC(CN2CCN(c3ccc(C(=O)NS(=O)(=O)c4ccc(NC[C@H]5CC[C@](C)(O)CC5)c([N+](=O)[O-])c4)c(Oc4cnc5[nH]ccc5c4)c3)CC2)=C(c2cc(-c3cc(C(C)(C)O)ccc3F)cs2)C1 [Example 75, 2-((1H-pyrrolo[2,3-b]pyridin-5-yl)oxy)-4-(4-((2-(4-(2-fluoro-5-(2-hydroxypropan-2-yl)phenyl)thiophen-2-yl)-4,4-dimethylcyclohex-1-en-1-yl)methyl)piperazin-1-yl)-N-((4-((((1r,4r)-4-hydroxy-4-methylcyclohexyl)methyl)amino)-3-nitrophenyl)sulfonyl)benzamide] | 19.2 nM | 1580 nM | 118 nM
CC1(C)CCC(CN2CCN(c3ccc(C(=O)NS(=O)(=O)c4ccc(NC[C@H]5CC[C@](C)(O)CC5)c([N+](=O)[O-])c4)c(Oc4cnc5[nH]ccc5c4)c3)CC2)=C(c2cc(-c3ccc(C(C)(O)C(F)(F)F)cc3F)cs2)C1 (stereo partly drawn) [Example 78, 2-((1H-pyrrolo[2,3-b]pyridin-5-yl)oxy)-4-(4-((2-(4-(2-fluoro-4-(1,1,1-trifluoro-2-hydroxypropan-2-yl)phenyl)thiophen-2-yl)-4,4-dimethylcyclohex-1-en-1-yl)methyl)piperazin-1-yl)-N-((4-((((1r,4r)-4-hydroxy-4-methylcyclohexyl)methyl)amino)-3-nitrophenyl)sulfonyl)benzamide] | 16.8 nM | 580 nM | 59 nM
CC1(C)CCC(CN2CCN(c3ccc(C(=O)NS(=O)(=O)c4ccc(NC[C@H]5CC[C@](C)(O)CC5)c([N+](=O)[O-])c4)c(Oc4cnc5[nH]ccc5c4)c3)CC2)=C(c2cc(-c3ccc4c(c3)CCC4(C)O)cs2)C1 (stereo partly drawn) [Example 79, 2-((1H-pyrrolo[2,3-b]pyridin-5-yl)oxy)-4-(4-((2-(4-(1-hydroxy-1-methyl-2,3-dihydro-1H-inden-5-yl)thiophen-2-yl)-4,4-dimethylcyclohex-1-en-1-yl)methyl)piperazin-1-yl)-N-((4-((((1r,4r)-4-hydroxy-4-methylcyclohexyl)methyl)amino)-3-nitrophenyl)sulfonyl)benzamide] | 15.8 nM | 170 nM | 11 nM
CC(=O)NC(C)(C)c1cc(F)c(-c2csc(C3=C(CN4CCN(c5ccc(C(=O)NS(=O)(=O)c6ccc(NC[C@H]7CC[C@](C)(O)CC7)c([N+](=O)[O-])c6)c(Oc6cnc7[nH]ccc7c6)c5)CC4)CCC(C)(C)C3)c2)c(F)c1 [Example 80, 2-((1H-pyrrolo[2,3-b]pyridin-5-yl)oxy)-4-(4-((2-(4-(4-(2-acetamidopropan-2-yl)-2,6-difluorophenyl)thiophen-2-yl)-4,4-dimethylcyclohex-1-en-1-yl)methyl)piperazin-1-yl)-N-((4-((((1r,4r)-4-hydroxy-4-methylcyclohexyl)methyl)amino)-3-nitrophenyl)sulfonyl)benzamide] | 15.6 nM | 420 nM | 111 nM
